According to US8859550B2, “Heterocyclic inhibitors of histamine receptors for the treatment of disease” (Kalypsys, Inc., priority 2011, dated 2014):
Read-outs that look alike come from different tables or passages of the source.

Experiments:
[1] = Solubility in aqueous acetate buffer (80 mM); type: physicochemical; conditions: aqueous acetate buffer (80 mM) at pH3.5-4.5
[2] = Solid state form conversion on storage at ambient conditions; type: physicochemical; conditions: solid state, ambient conditions
Text: Two crystal forms of Compound 1 Mesylate Salt were obtained from these experiments. Compound 1 Mesylate Salt, Form 1 is a monomesylate reversible monohydrate solid state form that was obtained from ten of the twelve crystallization experiments conducted. […] Compound 1 Mesylate Salt Form 2 was obtained by slow evaporation of gummy solids at ambient temperature in two of twelve screening experiments. Compound 1 Mesylate Salt Form 2 was obtained as a mixture of Form 1 and Form 2 in one of twelve crystallization experiments.
A Compound 1 Mesylate salt form screen was conducted involving about 160 crystallization experiments in 48 solvents and aqueous mixtures was performed conducted as previously described (vide supra). Compound 1 Mesylate Salt Form 1, the reversible monohydrate initially discovered in during the crystallization experiments cited above, was obtained from a variety of solvents and crystallization conditions, including 25 slurry-ripening, six cooling, 16 evaporative and four vapor diffusion experiments. […] Samples of Compound 1, Mesylate Salt Forms 2-5 converted to Compound 1 Mesylate Salt Form 1 in solid state within one week at ambient conditions.

[3] = Gravimetric Vapor Sorption (GVS); type: physicochemical; conditions: 25° C.
Experimental: GVS: GVS experiments were conducted on a SurfaceMeasurement Systems DVS-HT at 25° C. The instrument was operated in step mode and the relative humidity (RH) was increased in 10% RH increments from 40% RH to 90% RH, then decreased from 90% RH to 0% RH, then increased a second time from 0% RH to 90% RH, then decreased from 90% RH to 0% RH. An extra step at 75% RH was included in each cycle. The mass equilibrium criterion was set at 0.005% change in mass over time (dm/dt). A minimum step time of 10 minutes and a maximum step time of 240 minutes were specified.

[4] = Equilibrium solubility study; type: physicochemical; conditions: for solubility thermodynamic: thermodynamic from solid, read-out: Filtrate Concentration (equilibrium solubility)
Experimental: Equilibrium solubility experiments were conducted for Compound 2 Monohydrochloride Form 1, Compound 2 Monomesylate Form 1 and Compound 2 Monocitrate Form 1 salts in water and pH-5 acetate buffer solution. The results of the equilibrium solubility study are summarized in Table 26 (where “a” indicates FTIR and PXRD spectra of both samples were distinctly different from the known forms of Compound 2 or Compound 2 Monocitrate salt Form 1).

[5] = In-situ salt formation screen (filtrate solubility); type: physicochemical; conditions: thermodynamic from solid, read-out: Filtrate Solubility
human H4 [6] = biological target: T1, human H4 (Homo sapiens, UniProt Q9H3N8); assay: In vitro histamine receptor cell-based assay (aequorin bioluminescence), agonist mode; conditions: CHO-K1 cells expressing human H4; test compound alone, without added histamine
T1 construct: host or cells: CHO-K1
Experimental: (§1) The cell-based assays utilize an aequorin dependent bioluminescence signal. Doubly-transfected, stable CHO-K1 cell lines expressing human H4, or H1, mitochondrion-targeted aequorin, and (H4 only) human G protein Gα16 are obtained from Perkin-Elmer. Cells are maintained in F12 (Ham's) growth medium, containing 10% (vol./vol.) fetal bovine serum, penicillin (100 IU/mL), streptomycin (0.1 mg/mL), zeocin (0.25 mg/mL) and geneticin (0.40 mg/mL). Cell media components are from Invitrogen, Inc. One day prior to assay, the growth medium is replaced with the same, excluding zeocin and geneticin. In some assays, cells previously frozen at “ready to use density” are thawed and immediately available for loading with coelenterazine-h dye as described below. […]
(§2) Just before assay, the dye-loaded cells are diluted to 1.5×10^6 cells/mL (H4 receptor) or 0.75×10^6 cells/mL (H1 receptor) with additional assay medium. […] Assay plates are then transferred to a Lumilux bioluminescence plate reader (Perkin-Elmer) equipped with an automated 1536 disposable tip pipette. The pipette dispenses 3 μL/well of agonist (histamine, at twice the final concentration, where final concentration is a previously determined EC80) in assay medium, with concurrent bioluminescence detection. […] Efficacy is measured as a percentage of positive control activity.

human H4 [7] = biological target: T1, human H4; assay: In vitro histamine receptor cell-based assay (aequorin bioluminescence), antagonist mode; conditions: CHO-K1 cells expressing human H4, aequorin and Gα16; histamine at EC80
Experimental: as §1, §2

BALB/c mice = assay: Model of allergic rhinitis in Balb/C mice, whole-body plethysmography; type: in vivo; set-up: key: +: increase in RF over positive control; −: no increase in RF over positive control; conditions: 0.1%, w/v, intranasal instillation 10 μl in each nostril 2.5 hours prior to OVA; day 4 (early phase)
Text: Female BALB/c mice, 6-12 weeks of age, were obtained from Jackson Laboratories (Bar Harbor, Me.). All experimental animals used in this work were under a protocol approved by the Institutional Animal Care and Use Committee of the National Jewish Medical and Research Center, Denver, Colo.
The assay protocol is similar to that described in Miyahara, S. et al. (2005), J Allergy Clin Immunol., 116:1020-1027. The role of the H4 receptor in this model has been validated [Shiraishi, Y. et al. (2009), J Allergy Clin Immunol., 123:556]. Briefly, mice received intraperitoneal injections of 20 μg ovalbumin (OVA, Grade V; Sigma-Aldrich, St. Louis, Mo.), previously emulsified in 2.25 mg of alum (AlumImuject; Pierce, Rockford, Ill.) in a total volume of 100 μL (sensitization phase). Injections occurred on days 0 and 14. […] On day 4 (early phase) and day 7 (late phase) after starting OVA challenges, respiratory frequency (RF) was measured in conscious animals by single chamber restrained whole-body plethysmography (WBP) [Buxco Research Systems, Troy, N.Y.]. […] After whole-body plethysmography on day 7, nasal airflow impedance was measured as described (RNA, see Methods section for Miyahara S. et al. [above] in the online supplemental material at the Journal of Allergy and Clinical Immunology: www.jacionline.org), using a custom-designed ventilator (Flexivent; Scireq, Montreal, Quebec, Canada). […]

T1 sequence (Q9H3N8 whole entry): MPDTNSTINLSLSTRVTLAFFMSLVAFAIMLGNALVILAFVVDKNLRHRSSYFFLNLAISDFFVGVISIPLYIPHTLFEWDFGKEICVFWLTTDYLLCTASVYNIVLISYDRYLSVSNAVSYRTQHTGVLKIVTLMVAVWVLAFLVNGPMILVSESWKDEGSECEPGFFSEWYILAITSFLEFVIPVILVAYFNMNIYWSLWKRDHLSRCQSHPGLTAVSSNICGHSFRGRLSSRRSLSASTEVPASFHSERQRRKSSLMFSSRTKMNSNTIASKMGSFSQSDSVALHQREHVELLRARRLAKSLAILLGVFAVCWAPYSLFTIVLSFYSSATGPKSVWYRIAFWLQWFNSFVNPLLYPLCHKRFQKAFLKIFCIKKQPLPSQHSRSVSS

## CN1CCN(c2ncc(-c3cccs3)n3nnnc23)CC1.CS(=O)(=O)O [Compound 1 Mesylate Salt Form 1, 8-(4-Methylpiperazin-1-yl)-5-(thiophen-2-yl)tetrazolo[1,5-a]pyrazine Mesylate Monohydrate]
[1]
  improvement in solubility over Compound 1: > 5 fold
[2]
  crystal form stability: the most, and the only, stable crystal form
[3]
  hygroscopicity (GVS): not hydroscopic
[3]; below 20% RH
  GVS loss of water: ~4.30%
[3]; between 20-90% RH
  GVS water content: ~4.3%
[4]; 0.2 M acetate buffer, pH 5, aqueous buffer, 0.2M Acetate Buffer (pH5), final pH 4.17, residual solid Free Base
  solubility thermodynamic: 58200 µg/mL
[4]; Water, final pH 3.51, Dissolved, Mesylate Monohydrate
  Filtrate Concentration (equilibrium solubility): >100000 µg/mL
[4]; water, pH 3.51, water, Water, final pH 3.51, Dissolved
  solubility thermodynamic: > 100000 µg/mL
[4]; water, aqueous
  solubility: > 100000 µg/mL

## CN1CCN(c2ncc(-c3cccs3)n3nnnc23)CC1 [Compound 1, 8-(4-Methylpiperazin-1-yl)-5-(thiophen-2-yl)tetrazolo[1,5-a]pyrazine]
[5]; aqueous buffer, 0.1M aqueous Acetic Acid, filtrate pH 4.02, filtrant Free Base
  solubility at 48 h: 7990 µg/mL
[5]; aqueous buffer, 0.1M aqueous Citric Acid, filtrate pH 3.11, filtrant Salt
  solubility at 48 h: 1750 µg/mL
[5]; aqueous buffer, 0.1M aqueous L-Glutamic Acid, filtrate pH 4.28, filtrant Free Base
  solubility at 48 h: 6750 µg/mL
[5]; aqueous buffer, 0.1M aqueous L-Malic Acid, filtrate pH 4.15, filtrant Salt
  solubility at 48 h: 13400 µg/mL
[5]; aqueous buffer, 0.1M aqueous L-Tartaric Acid, filtrate pH 3.48, filtrant Salt
  solubility at 48 h: 8690 µg/mL
[5]; aqueous buffer, 0.1M aqueous Mesic Acid, filtrate pH 1.49, No Solids Isolated
  solubility at 48 h: 20000 µg/mL
[5]; aqueous buffer, 0.1M aqueous Phosphoric Acid, filtrate pH 1.76, filtrant Salt
  solubility at 48 h: 870 µg/mL
[5]; aqueous buffer, 0.1M aqueous Succinic Acid, filtrate pH 4.13, filtrant Free Base
  solubility at 48 h: 10400 µg/mL
[5]; aqueous buffer, 0.1M aqueous Sulfuric Acid, filtrate pH 1.39, filtrant Salt
  solubility at 48 h: 560 µg/mL
[5]; pH 4.2, aqueous buffer, 0.1M aqueous L-Aspartic Acid, filtrate pH 4.20, filtrant Free Base
  solubility at 48 h: 8640 µg/mL
[5]; simulated gastric fluid, 0.1M aqueous Hydrochloric Acid, filtrate pH 1.25, filtrant Salt
  solubility at 48 h: 990 µg/mL
Human H4 [6]
  EC50: > 100 µM
Human H4 [7]
  EC50: ≤ 10 µM
BALB/c mice
  WBP, Day 4 (respiratory frequency, RF): +

## CNC1CN(c2ncc(-c3cccs3)n3nnnc23)C1 [Compound 2, N-methyl-1-(5-(thiophen-2-yl)tetrazolo[1,5-a]pyrazin-8-yl)azetidin-3-amine]
[5]; aqueous buffer, 0.1M aqueous Acetic Acid, filtrate pH 5.41, No Solids Isolated
  solubility at 48 h: > 24500 µg/mL
[5]; aqueous buffer, 0.1M aqueous Citric Acid, filtrate pH 3.69, filtrant Salt
  solubility at 48 h: 4270 µg/mL
[5]; aqueous buffer, 0.1M aqueous L-Aspartic Acid, filtrate pH 4.95, No Solids Isolated
  solubility at 48 h: > 18400 µg/mL
[5]; aqueous buffer, 0.1M aqueous L-Glutamic Acid, filtrate pH 5.46, filtrant Free Base
  solubility at 48 h: 10400 µg/mL
[5]; aqueous buffer, 0.1M aqueous L-Malic Acid, filtrate pH 5.13, No Solids Isolated
  solubility at 48 h: > 21100 µg/mL
[5]; aqueous buffer, 0.1M aqueous L-Tartaric Acid, filtrate pH 3.23, filtrant Salt
  solubility at 48 h: 1390 µg/mL
[5]; aqueous buffer, 0.1M aqueous Mesic Acid, filtrate pH 2.28, No Solids Isolated
  solubility at 48 h: > 25300 µg/mL
[5]; aqueous buffer, 0.1M aqueous Phosphoric Acid, filtrate pH 4.8, filtrant Salt
  solubility at 48 h: 740 µg/mL
[5]; aqueous buffer, 0.1M aqueous Succinic Acid, filtrate pH 4.75, filtrant Salt
  solubility at 48 h: 100 µg/mL
[5]; aqueous buffer, 0.1M aqueous Sulfuric Acid, filtrate pH 1.42, filtrant Salt
  solubility at 48 h: 610 µg/mL
[5]; simulated gastric fluid, 0.1M aqueous Hydrochloric Acid, filtrate pH 2.32, filtrant Salt
  solubility at 48 h: 15200 µg/mL
Human H4 [6]
  EC50: > 100 µM
Human H4 [7]
  EC50: ≤ 10 µM
BALB/c mice
  WBP, Day 4 (respiratory frequency, RF): +
